This note sets out measurements from patent publication US20260176265A1 (Cancer Research Technology Limited, priority 2022, published 2026).

SMILES strings stand for the structures.

The target of assay [1] is CtermHisTag-mEGFR Triple Mutant - C797S, L858R, T790M (Homo sapiens, UniProt P00533, C797S/L858R/T790M). Description: TR-FRET probe displacement assay, EGFR triple mutant. The note with it: T790M 1.25 nM, probe 100 nM, 30 mins room temperature. It counts as binding. As for the experimental part:
(§1) Compounds (dissolved to 100 mM in DMSO) were dispensed into black low volume 384 well assay plates (Corning) over a final concentration range of 100000, 30000, 10000, 3000, 1000, 300, 100, 30, 10, and 3 nM using an Echo 550 (Labcyte). Positive control compound and DMSO as a negative control were dispensed into the first and last well, respectively. […]. Plates were read using a PheraStar FS (BMG Labtech) at Ex337 nm Ex490/520 nm. The data were analysed using Graphpad Prism/Dotmatics Studies Software. Assays conducted in technical replicate and repeated as a biological duplicate.
(In general: Time-resolved FRET reads energy transfer from a long-lived donor to a nearby acceptor.)

The target of assay [2] is CtermHisTag-mEGFR Wild type (Homo sapiens, UniProt P00533). Description: TR-FRET probe displacement assay, EGFR wild type. It counts as binding. To be noted: EGFR wild type 1.25 nM, probe 100 nM, 30 mins room temperature. As for the experimental part: as §1
Sequence of CtermHisTag-mEGFR Wild type (P00533 25-1210): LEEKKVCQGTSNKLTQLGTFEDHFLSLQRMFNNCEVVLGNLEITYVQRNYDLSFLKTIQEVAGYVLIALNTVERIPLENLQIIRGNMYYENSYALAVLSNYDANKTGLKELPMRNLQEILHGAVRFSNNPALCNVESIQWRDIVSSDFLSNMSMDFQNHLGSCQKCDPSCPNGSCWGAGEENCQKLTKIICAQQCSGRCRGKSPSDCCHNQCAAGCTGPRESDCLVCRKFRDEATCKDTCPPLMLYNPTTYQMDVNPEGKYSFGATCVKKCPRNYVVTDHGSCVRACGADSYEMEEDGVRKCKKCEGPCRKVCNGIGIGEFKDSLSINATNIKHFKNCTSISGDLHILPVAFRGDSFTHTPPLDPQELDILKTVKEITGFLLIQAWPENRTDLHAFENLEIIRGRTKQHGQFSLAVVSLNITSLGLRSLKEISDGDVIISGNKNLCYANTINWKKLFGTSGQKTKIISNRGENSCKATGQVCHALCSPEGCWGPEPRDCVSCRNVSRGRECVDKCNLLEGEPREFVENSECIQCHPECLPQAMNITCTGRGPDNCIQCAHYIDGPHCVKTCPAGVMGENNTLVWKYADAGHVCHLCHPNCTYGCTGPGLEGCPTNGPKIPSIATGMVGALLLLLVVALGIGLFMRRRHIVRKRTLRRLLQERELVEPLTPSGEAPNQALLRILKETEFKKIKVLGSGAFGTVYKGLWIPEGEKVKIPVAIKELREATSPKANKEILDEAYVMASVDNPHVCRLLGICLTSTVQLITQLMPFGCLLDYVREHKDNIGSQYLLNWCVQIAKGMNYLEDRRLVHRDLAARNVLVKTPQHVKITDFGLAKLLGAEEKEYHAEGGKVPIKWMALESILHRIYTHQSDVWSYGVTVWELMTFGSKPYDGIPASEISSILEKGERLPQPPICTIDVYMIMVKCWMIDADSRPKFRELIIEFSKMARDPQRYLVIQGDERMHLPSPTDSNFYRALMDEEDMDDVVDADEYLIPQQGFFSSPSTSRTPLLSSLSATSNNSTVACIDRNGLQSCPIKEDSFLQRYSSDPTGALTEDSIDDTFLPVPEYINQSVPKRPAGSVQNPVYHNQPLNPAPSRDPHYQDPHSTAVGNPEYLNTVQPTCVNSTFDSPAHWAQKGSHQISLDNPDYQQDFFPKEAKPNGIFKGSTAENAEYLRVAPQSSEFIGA
For assay [3], the target named is T1, Phospho-EGFR (Tyr1068) in H1975 cells (Homo sapiens, UniProt P00533, L858R/T790M).
T1 construct: host or cells: H1975
T1 sequence (P00533 25-1210 T790M/L858R): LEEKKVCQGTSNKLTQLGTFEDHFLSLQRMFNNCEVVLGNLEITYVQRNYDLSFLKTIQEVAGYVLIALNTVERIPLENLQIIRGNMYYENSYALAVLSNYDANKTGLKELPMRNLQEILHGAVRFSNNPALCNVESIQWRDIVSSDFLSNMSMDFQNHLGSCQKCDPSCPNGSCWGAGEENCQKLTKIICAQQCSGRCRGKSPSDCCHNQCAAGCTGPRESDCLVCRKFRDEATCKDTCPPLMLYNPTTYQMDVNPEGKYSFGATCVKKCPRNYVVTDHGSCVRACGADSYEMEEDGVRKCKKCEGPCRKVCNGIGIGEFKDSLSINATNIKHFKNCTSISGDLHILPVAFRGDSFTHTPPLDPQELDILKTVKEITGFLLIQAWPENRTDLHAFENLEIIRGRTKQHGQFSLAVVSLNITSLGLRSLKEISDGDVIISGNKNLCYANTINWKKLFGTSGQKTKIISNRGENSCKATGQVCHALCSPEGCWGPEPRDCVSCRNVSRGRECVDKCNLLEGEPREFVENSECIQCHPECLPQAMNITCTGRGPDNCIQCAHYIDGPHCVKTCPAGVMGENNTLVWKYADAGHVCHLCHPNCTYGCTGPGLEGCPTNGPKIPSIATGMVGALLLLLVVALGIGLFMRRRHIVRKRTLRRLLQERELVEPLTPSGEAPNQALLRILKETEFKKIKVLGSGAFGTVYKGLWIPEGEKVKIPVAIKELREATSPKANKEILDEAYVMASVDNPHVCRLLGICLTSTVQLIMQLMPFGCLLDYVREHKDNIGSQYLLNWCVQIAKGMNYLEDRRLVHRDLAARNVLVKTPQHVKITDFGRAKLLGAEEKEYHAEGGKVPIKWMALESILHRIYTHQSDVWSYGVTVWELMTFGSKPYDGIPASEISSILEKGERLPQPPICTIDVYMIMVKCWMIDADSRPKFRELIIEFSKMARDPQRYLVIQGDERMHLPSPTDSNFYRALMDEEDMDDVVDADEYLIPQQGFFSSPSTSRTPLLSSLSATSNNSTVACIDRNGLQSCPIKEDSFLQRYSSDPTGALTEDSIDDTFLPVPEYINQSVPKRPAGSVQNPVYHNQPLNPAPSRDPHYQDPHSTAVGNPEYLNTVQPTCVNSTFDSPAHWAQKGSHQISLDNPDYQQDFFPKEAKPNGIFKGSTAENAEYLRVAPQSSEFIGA
The experiment in a line: HTRF pEGFR/total EGFR assay in H1975 cells. Format: cell-based. The note with it: compound 3 hours, ratio pEGFR/total EGFR. As for the experimental part:
H1975 cells (ATCC CRL-5908) were plated at 20,000 cells per well in 96 well plates and placed at 37° C. 5% CO2. Once adhered (after 24h) cells were treated with compounds dissolved in DMSO at a final concentration of 0.1% DMSO in media. Compounds were diluted in media then added to cells for 3 hours in duplicate. Compound and media were removed from the cells, then 50ul of HTRF lysis buffer is added (lysis buffer was diluted from 4× stock to 1× in DI water, with 1% blocking agent also added). Cells were lysed on a plate shaker (2000 rpm) for 30 minutes at room temperature. pEGFR expression was monitored using the Cisbio Phospho-EGFR (Tyri068) cellular kit (64EG1 PEH). Total EGFR expression was monitored using the Cisbio Total EGFR cellular kit (64NG1 PEH) as per manufacturer's instructions. Fluorescence emission was read at two different wavelengths (665 nm and 620 nm) on a PheraStar. Results were calculated as ratio of pEGFR/total EGFR and then percentage of 0 uM control.

Assay [4] deals with T2, Phospho-EGFR (Tyr1068) in H1975 C797S cells (Homo sapiens, UniProt P00533, C797S/L858R/T790M).
T2 construct: endogenous in cells; host or cells: H1975 C797S (CRISPR-edited in house from ATCC CRL-5908)
The experiment in a line: HTRF pEGFR/total EGFR assay in H1975 C797S cells. Format: cell-based. The note with it: H1975 C797S cells (CRISPR), compound 3 hours, ratio pEGFR/total EGFR. As for the experimental part:
H1975 C797S cells (ATCC CRL-5908) were genetically engineered by CRISPR editing of EGFR C797S in house and validated by NGS. Cells were plated at 20,000 cells per well in 96 well plates and placed at 37° C. 5% CO2. Once adhered (after 24h) cells were treated with compounds dissolved in DMSO at a final concentration of 0.1% DMSO in media. Compounds were diluted in media then added to cells for 3 hours in duplicate. Compound and media were removed from the cells, then 50 ul of HTRF lysis buffer was added (lysis buffer was diluted from 4× stock to 1× in DI water, with 1% blocking agent also added). Cells were lysed on a plate shaker (2000 rpm) for 30 minutes at room temperature. pEGFR expression was monitored using the Cisbio Phospho-EGFR (Tyr1068) cellular kit (64EG1PEH). Total EGFR expression was monitored using the Cisbio Total EGFR cellular kit (64NG1PEH) as per manufacturer's instructions. Fluorescence emission was read at two different wavelengths (665 nm and 620 nm) on a PheraStar. Results were calculated as ratio of pEGFR/total EGFR and then percentage of 0 uM control.

In assay [5] the target is T3, Phospho-EGFR (Tyr1068) in A431 cells (Homo sapiens, UniProt P00533).
T3 construct: endogenous in cells; host or cells: A431
T3 sequence (P00533 25-1210): as the sequence (P00533 25-1210) above
Description: HTRF pEGFR/total EGFR assay in A431 cells (EGF stimulated). To be noted: compound 2.5 hours then 100 ng/ml EGF 30 mins, ratio pEGFR/total EGFR. It counts as cell-based. As for the experimental part:
Cells were plated at 20,000 cells per well in 96 well plates and placed at 37° C. 5% CO2. Once adhered (after 24h) cells were treated with compounds dissolved in DMSO at a final concentration of 0.1% DMSO in media. Compounds were diluted in media then added to cells for 2.5 hours in duplicate, 100 ng/ml EGF (ThermoFisher, PHG0311 was is added to all compound treated cells as well as a control for 30 mins. Compound and media were removed from the cells, then 50ul of HTRF lysis bufferwas added (lysis bufferwas diluted from 4× stock to 1× in DI water, with 1% blocking agent also added). Cells were lysed on a plate shaker (2000 rpm) for 30 minutes at room temperature. pEGFR expression was monitored using the Cisbio Phospho-EGFR (Tyr1068) cellular kit (64EG1PEH). Total EGFR expression was monitored using the Cisbio Total EGFR cellular kit (64NG1PEH) as per manufacturer's instructions. Fluorescence emission was read at two different wavelengths (665 nm and 620 nm) on a PheraStar. Results were calculated as ratio of pEGFR/total EGFR and then percentage of OuM control.

Sequence of CtermHisTag-mEGFR Triple Mutant - C797S, L858R, T790M (P00533 25-1210 T790M/C797S/L858R): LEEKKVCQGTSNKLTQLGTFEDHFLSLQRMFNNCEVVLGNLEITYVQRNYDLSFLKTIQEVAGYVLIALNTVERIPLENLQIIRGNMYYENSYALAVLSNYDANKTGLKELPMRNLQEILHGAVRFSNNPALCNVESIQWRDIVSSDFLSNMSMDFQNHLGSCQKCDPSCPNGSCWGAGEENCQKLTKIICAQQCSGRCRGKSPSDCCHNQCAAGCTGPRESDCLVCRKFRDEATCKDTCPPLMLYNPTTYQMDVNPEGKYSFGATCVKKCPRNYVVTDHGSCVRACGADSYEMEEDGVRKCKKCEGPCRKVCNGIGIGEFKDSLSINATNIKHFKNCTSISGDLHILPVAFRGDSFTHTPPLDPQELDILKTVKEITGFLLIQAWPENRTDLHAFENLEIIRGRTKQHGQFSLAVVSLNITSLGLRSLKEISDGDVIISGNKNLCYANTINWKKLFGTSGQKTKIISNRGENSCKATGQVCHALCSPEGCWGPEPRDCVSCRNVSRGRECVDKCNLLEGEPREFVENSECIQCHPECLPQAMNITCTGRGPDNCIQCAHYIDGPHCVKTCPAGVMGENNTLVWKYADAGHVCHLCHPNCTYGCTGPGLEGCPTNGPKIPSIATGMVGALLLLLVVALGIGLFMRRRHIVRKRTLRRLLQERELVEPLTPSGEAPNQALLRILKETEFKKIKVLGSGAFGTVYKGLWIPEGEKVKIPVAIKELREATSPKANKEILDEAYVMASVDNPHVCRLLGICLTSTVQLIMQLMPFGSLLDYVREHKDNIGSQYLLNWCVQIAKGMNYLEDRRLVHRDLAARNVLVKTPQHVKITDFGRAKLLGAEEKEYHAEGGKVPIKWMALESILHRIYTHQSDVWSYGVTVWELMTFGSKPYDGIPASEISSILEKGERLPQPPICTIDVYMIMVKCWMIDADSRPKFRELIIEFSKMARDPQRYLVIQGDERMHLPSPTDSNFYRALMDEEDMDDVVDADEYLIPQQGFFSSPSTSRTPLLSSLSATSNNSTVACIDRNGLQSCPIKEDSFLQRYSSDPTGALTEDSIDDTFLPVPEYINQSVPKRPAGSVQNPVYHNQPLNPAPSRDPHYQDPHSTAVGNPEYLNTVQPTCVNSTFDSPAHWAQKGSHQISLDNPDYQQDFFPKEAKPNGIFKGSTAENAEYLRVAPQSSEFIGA

For `C#Cc1cc(OC2CCCCC2)nc2nc(Nc3ccc(N4CCN(C)CC4)cc3)ncc12` [Example 14, 7-(cyclohexyloxy)-5-ethynyl-N-(4-(4-methylpiperazin-1-yl)phenyl)pyrido[2,3-d]pyrimidin-2-amine], the concentration for half-maximal inhibition (IC50) in assay [1] was 0.1 to 1 µM; in assay [2], over 10 µM; in assay [3], over 3 µM; in assay [4] it was over 3 µM; in assay [5], over 3 µM.

In the case of `C#Cc1cc(OC2CC2)nc2nc(Nc3ccc(N4CCN(C)CC4)cc3)ncc12` [Example 16, 7-cyclopropoxy-5-ethynyl-N-[4-(4-methylpiperazin-1-yl)phenyl]pyrido[2,3-d]pyrimidin-2-amine], the IC50 in assay [1] is 0.1 to 1 µM; in assay [2], over 10 µM; in assay [3] it was 1 to 3 µM; in assay [4], over 3 µM; in assay [5] it was over 3 µM.

For `C#Cc1cc(OC(C)C)nc2nc(Nc3ccc(N4CCN(C)CC4)cc3)ncc12` [Example 17, 5-ethynyl-7-isopropoxy-N-[4-(4-methylpiperazin-1-yl)phenyl]pyrido[2,3-d]pyrimidin-2-amine], the concentration for half-maximal inhibition (IC50) in assay [1] is 0.1 to 1 µM; in assay [2] it was over 10 µM; in assay [3], 1 to 3 µM; in assay [4], 1 to 3 µM; in assay [5], over 3 µM.

On to `C#Cc1cc(OC2CCC2)nc2nc(Nc3ccc(N4CCN(C)CC4)cc3)ncc12` [Example 18, 7-cyclobutoxy-5-ethynyl-N-[4-(4-methylpiperazin-1-yl)phenyl]pyrido[2,3-d]pyrimidin-2-amine], for which the concentration for half-maximal inhibition (IC50) was 0.02 to 0.1 µM in assay [1]; over 10 µM in assay [2]; over 3 µM in assay [3]; over 3 µM in assay [4]; over 3 µM in assay [5].

As to `C#Cc1cc(OCc2ccccc2)nc2nc(Nc3ccc(N4CCN(C)CC4)cc3)ncc12` [Example 20, 7-(benzyloxy)-5-ethynyl-N-[4-(4-methylpiperazin-1-yl)phenyl]pyrido[2,3-d]pyrimidin-2-amine], the IC50 is 0.1 to 1 µM in assay [1]; over 10 µM in assay [2]; over 3 µM in assay [3]; over 3 µM in assay [4]; over 3 µM in assay [5].

`C#Cc1cc(OCCc2ccccc2)nc2nc(Nc3ccc(N4CCN(C)CC4)cc3)ncc12` [Example 21, 5-ethynyl-N-[4-(4-methylpiperazin-1-yl)phenyl]-7-(2-phenylethoxy)pyrido[2,3-d]pyrimidin-2-amine]: the IC50 was 0.1 to 1 µM in assay [1]; over 10 µM in assay [2]; over 3 µM in assay [3]; over 3 µM in assay [4]; over 3 µM in assay [5].

For the compound `C#Cc1cc(OCCCc2ccccc2)nc2nc(Nc3ccc(N4CCN(C)CC4)cc3)ncc12` [Example 22, 5-ethynyl-N-[4-(4-methylpiperazin-1-yl)phenyl]-7-(3-phenylpropoxy)pyrido[2,3-d]pyrimidin-2-amine], the IC50 in assay [1] is 0.1 to 1 µM; in assay [2] it was over 10 µM; in assay [3], over 3 µM; in assay [4], over 3 µM; in assay [5] it was over 3 µM.

On to `C#Cc1c(C)c(OCC2CCCC2)nc2nc(Nc3ccc(N4CCN(C)CC4)cc3)ncc12` [Example 23, 7-(cyclopentylmethoxy)-5-ethynyl-6-methyl-N-[4-(4-methylpiperazin-1-yl)phenyl]pyrido[2,3-d]pyrimidin-2-amine], for which the concentration for half-maximal inhibition (IC50) in assay [1] is 0.1 to 1 µM; in assay [2], over 10 µM; in assay [3] it was over 3 µM; in assay [4], over 3 µM; in assay [5], over 3 µM.

As to `C#Cc1cc(N(C)C)nc2nc(Nc3ccc(N(C)CCN(C)C)cc3)ncc12` [Example 24, N^2-(4-{[2-(dimethylamino)ethyl](methyl)amino}phenyl)-5-ethynyl-N^7,N^7-dimethylpyrido[2,3-d]pyrimidine-2,7-diamine], the IC50 in assay [1] was 1 to 50 µM; in assay [2], over 10 µM; in assay [3], over 3 µM; in assay [4] it was over 3 µM; in assay [5], over 3 µM.

As for `C#Cc1cc(Nc2ccccc2)nc2nc(Nc3ccc(N(C)CCN(C)C)cc3)ncc12` [Example 25, N^2-(4-{[2-(dimethylamino)ethyl](methyl)amino}phenyl)-5-ethynyl-N^7-phenylpyrido[2,3-d]pyrimidine-2,7-diamine], the IC50 in assay [1] was 1 to 50 µM; in assay [2] it was over 10 µM; in assay [3], over 3 µM; in assay [4], over 3 µM; in assay [5], over 3 µM.

As to `C#Cc1cc(Nc2nccn2C)nc2nc(Nc3ccc(N4CCN(C)CC4)cc3)ncc12` [Example 26, 5-ethynyl-N^7-(1-methylmidazol-2-yl)-N^2-[4-(4-methylpiperazin-1-yl)phenyl]pyrido[2,3-d]pyrimidine-2,7-diamine], the IC50 is 0.02 to 0.1 µM in assay [1]; 1 to 10 µM in assay [2]; 0.5 to 1 µM in assay [3]; 1 to 3 µM in assay [4]; over 3 µM in assay [5].

In the case of `C#Cc1cc(Nc2nccn2C2CCCC2)nc2nc(Nc3ccc(N4CCN(C)CC4)cc3)ncc12` [Example 27, N^7-(1-cyclopentylmidazol-2-yl)-5-ethynyl-N^2-[4-(4-methylpiperazin-1-yl)phenyl]pyrido[2,3-d]pyrimidine-2,7-diamine], the IC50 was 0.02 to 0.1 µM in assay [1]; under 1 µM in assay [2]; 1 to 3 µM in assay [3]; over 3 µM in assay [4]; over 3 µM in assay [5].

Regarding `C#Cc1cc(NC(C)=O)nc2nc(Nc3ccc(N(C)CCN(C)C)cc3)ncc12` [Example 28], the IC50 in assay [1] was under 0.02 µM; in assay [2] it was over 10 µM; in assay [3], over 3 µM; in assay [4], over 3 µM; in assay [5], over 3 µM.

As to `C#Cc1cc(NC(=O)c2ccccc2)nc2nc(Nc3ccc(N4CCN(C)CC4)cc3)ncc12` [Example 29, N-(5-ethynyl-2-{[4-(4-methylpiperazin-1-yl)phenyl]amino}pyrido[2,3-d]pyrimidin-7-yl)benzamide], the half-maximal inhibitory concentration (IC50) was 0.02 to 0.1 µM in assay [1]; 1 to 10 µM in assay [2]; over 3 µM in assay [3]; over 3 µM in assay [4]; over 3 µM in assay [5].

For `C#Cc1cc(NC(=O)Cc2ccccc2)nc2nc(Nc3ccc(N4CCN(C)CC4)cc3)ncc12` [Example 30, N-(5-ethynyl-2-{[4-(4-methylpiperazin-1-yl)phenyl]amino}pyrido[2,3-d]pyrimidin-7-yl)-2-phenylacetamide], the IC50 is under 0.02 µM in assay [1]; 1 to 10 µM in assay [2]; 1 to 3 µM in assay [3]; 1 to 3 µM in assay [4]; over 3 µM in assay [5].

Usually IC50 stands for the point on the concentration scale where inhibition reaches its midpoint.
